The target of one assay is T1, ERAlpha receptor (Homo sapiens, UniProt P03372).
T1 construct: purchased PanVera
T1 sequence (P03372 1-595): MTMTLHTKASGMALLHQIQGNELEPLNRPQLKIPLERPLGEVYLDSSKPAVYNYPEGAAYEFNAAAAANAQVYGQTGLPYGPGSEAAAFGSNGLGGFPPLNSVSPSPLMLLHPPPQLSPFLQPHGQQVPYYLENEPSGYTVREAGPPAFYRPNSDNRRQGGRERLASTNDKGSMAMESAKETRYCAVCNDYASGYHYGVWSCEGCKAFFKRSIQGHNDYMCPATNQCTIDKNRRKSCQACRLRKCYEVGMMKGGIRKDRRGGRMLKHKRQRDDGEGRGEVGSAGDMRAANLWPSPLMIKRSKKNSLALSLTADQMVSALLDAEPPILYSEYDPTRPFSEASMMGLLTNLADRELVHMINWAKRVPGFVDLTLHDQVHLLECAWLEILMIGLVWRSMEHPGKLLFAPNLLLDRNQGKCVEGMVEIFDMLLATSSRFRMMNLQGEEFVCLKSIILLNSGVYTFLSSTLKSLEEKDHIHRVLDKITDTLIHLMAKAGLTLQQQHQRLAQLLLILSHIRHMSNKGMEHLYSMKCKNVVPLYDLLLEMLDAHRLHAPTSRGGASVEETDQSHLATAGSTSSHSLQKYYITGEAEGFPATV
Put plainly: ER alpha competition binding assay (3H-Estradiol). The conditions noted are these: 3H-Estradiol competition; IC50 converted to Ki using Cheng-Prusoff; read-out: ER binding Ki (ERα). The method, then:
(§1) Competition binding assay is run in a buffer containing 50 mM Hepes, pH 7.5, 1.5 mM EDTA, 150 mM NaCl, 10% glycerol, 1 mg/ml ovalbumin and 5 mM DTT, using 0.025 μCi per well ^3H-Estradiol(NEN #NET517 at 118 Ci/mmol, 1 mCi/ml), 10 ng/well ERAlpha or ERbeta receptor (PanVera). Competing compounds are added at 10 different concentrations. Non-specific binding is determined in the presence of 1 μM of 17-B Estradiol. The binding reaction (140 μl) is incubated for 4 hours at room temperature, then 70 μl of cold DCC buffer is added to each reaction (DCC buffer contains per 50 ml of assay buffer, 0.75 g of charcoal (Sigma) and 0.25 g of dextran (Pharmacia)). Plates are mixed 8 minutes on an orbital shaker at 4° C. Plates are then centrifuged at 3,000 rpm at 4° C. for 10 minutes. An aliquot of 120 μl of the mix is transferred to another 96-well, white flat bottom plate (Costar) and 175 μl of Wallac Optiphase “Hisafe 3” scintillation fluid is added to each well. Plates are sealed and shaken vigorously on an orbital shaker. After an incubation of 2.5 hrs, read plates in a Wallac Microbeta counter. […] The Kd for ^3H-Estradiol is determined by saturation binding to ER alpha and ER beta receptors. The IC50 values for compounds are converted to Ki using Cheng-Prusoff equation and the Kd determined by saturation binding assay.

Another assay deals with T2, ERbeta receptor (Homo sapiens, UniProt Q92731).
T2 construct: purchased PanVera
The assay is described as follows: ER beta competition binding assay (3H-Estradiol). As to conditions: 3H-Estradiol competition; IC50 converted to Ki using Cheng-Prusoff; read-out: ER binding Ki (ERβ). The method, then:
as §1

Assay [1] relates to MCF-7 breast adenocarcinoma cells. Put plainly: MCF-7 proliferation assay (14C-thymidine), antagonist mode. The assay is classed as cell-based. As to conditions: Homo sapiens, MCF7, antagonist mode, with 10 pM E2. The protocol:
MCF-7 breast adenocarcinoma cells (ATCC HTB 22) are maintained in MEM (minimal essential medium, phenol red-free, Gibco BRL) supplemented with 10% fetal bovine serum (FBS) (V/V), L-glutamine (2 mM), sodium pyruvate (1 mM), HEPES ((N-[2-hydroxyethyl]piperazine-N′-[2-ethanesulfonic acid]10 mM}, non-essential amino acids(0.1 mM)and Penicillin Streptomycin(1×). Seven days prior to assay, MCF-7 cells are switched to assay media which is the same as maintenance medium except supplemented with 10% dextran-coated charcoal-stripped fetal bovine serum (DCC-FBS) assay medium in place of 10% FBS. MCF-7 cells are removed from flasks using 10× Trypsin EDTA (phenol red free, Gibco BRL) and diluted to 1× in (Ca++/Mg++ free HBSS (phenol red-free). Cells are adjusted to 80,000 cells/ml in assay medium. Approximately 8,000 cells (100 μl) are added to each well in 96 well Cytostar T scintillation plates (Amersham) and incubated at 37° C. in a 5% CO2 humidified incubator for 24 hours to allow cell adherence and equilibration after transfer. Serial dilutions of drugs are prepared in assay medium at 4× the final desired concentration). A 50 μl aliquot of drug dilutions (at 4× the final assay concentration) is transferred to duplicate wells followed by 50 μl assay medium for the agonist mode or 50 μl of 40 pM of E2 for the antagonist mode to a final volume of 200 μl. For each of the agonist plates, a basal level (media) and a maximum stimulated level (with 1 μM E2) is determined. For each of the antagonist plates, a basal level (media) and a E2 (10 pM) alone control is determined. After an additional 48 hours at 37° C. in a 5% CO2 humidified incubator, 20 μl of assay medium containing 0.01 μCi of ^14C-thymidine (52 mCi/mmol, […], Amersham) is added to each well. The plates are incubated overnight in the same incubator and then counted on the Wallac Microbeta counter. […] For the agonist mode, an EC50 and percent of maximum E2 stimulation and concentration of maximum stimulation is calculated.

The test system of assay [2] is Ishikawa human endometrial tumor cells. Put plainly: Ishikawa cell assay (PNPP readout), agonist mode. The conditions noted are these: Homo sapiens, Ishikawa; for Emax: % efficacy versus the response to Tamoxifen, read-out: Ishikawa Agonist % Eff. The assay is classed as cell-based. The source says:
(§2) Ishikawa human endometrial tumor cells are maintained in MEM (minimum essential medium, with Earle's salts and L-Glutamine, Gibco BRL, Gaithersburg, Md.), supplemented with 10% fetal bovine serum (FBS) (V/V), (Gibco BRL). One day prior to assay, growth media is changed to assay medium, DMEM/F-12 (3:1) (Dulbecco's Modified Eagle Medium: Nutrient Mixture F-12, 3:1 Mixture, phenol red-free, Gibco BRL) supplemented with 5% dextran coated charcoal stripped fetal bovine serum (DCC-FBS) (Hyclone, Logen, Utah), L-Glutamine (2 mM), MEM sodium pyruvate (1 mM), HEPES (N-[2-hydroxyethyl]piperazine-N′-[2-ethanesulfonic acid] 2 mM) all from Gibco BRL). After an overnight incubation, ishikawa cells are rinsed with Dulbecco's Phosphate Buffered Saline (1×) (D-PBS) without Ca^+2 and Mg^+2 (Gibco BRL), and trypsinized by a 3 minute incubation with 0.25% Trypsin/EDTA, phenol red-free (Gibco BRL). Cells are resuspended in assay medium and adjusted to 250,000 cells/ml. Approximately 25,000 cells in a 100 ul media are added to flat-bottom 96 wells microculture plates (Costar 3596) and incubated at 37° C. in a 5% CO2 humidified incubator for 24 hours. The next day, serial dilutions of compounds are prepared in assay medium (at 6 times the final concentration in the assay). The assay is run in dual mode, agonist and antagonist modes. For the agonist mode, plates receive 25 μl/well of assay medium followed by 25 μl/well of diluted compounds (at 6× the final concentrations). For the antagonist mode, plates receive 25 μl/well of 6 nM E2 (β-Estradiol, Sigma, St. Louis, Mo.) followed by 25 μl/well of diluted compounds (at 6× the final concentrations). After an additional 48-hour incubation at 37° C. in a 5% CO2 humidified incubator, media is aspirated from wells and 100 μl fresh assay medium is added to each microculture. Serial dilutions of compounds are prepared and added to the cells as described above. After an additional 72 hour incubation at 37° C. in a 5% CO2 humidified incubator, the assay is quenched by removing media and rinsing plates twice in Dulbecco's Phosphate Buffered Saline (1×) (D-PBS) (Gibco BRL). The plates are dried for 5 min and frozen at −70° C. for at least 1 hour. The plates are then removed from the freezer and allowed to thaw at room temperature. To each well, 100 μl of 1-Step™ PNPP (Pierce Chemical Company, Rockford, Ill.) is added. After a 20-minute incubation, plates are read on a spectophotometer at 405 nm. The data is fitted to a linear interpolation to derive EC50 (for agonist mode) or IC50 (for antagonist mode) values. For the agonist mode, a % efficacy for each compound is calculated versus the response to Tamoxifen. For the antagonist mode, a % efficacy for each compound is calculated versus E2 (1 nM) alone.

Assay [3] has the same test system. Put plainly: Ishikawa cell assay (PNPP readout), antagonist mode. The assay is classed as cell-based. As to conditions: with 1 nM E2.
Source text: as §2

Counter-ions that a name gives are not always drawn.

From patent publication US7119206B2, “Derivative of dihydro-dibenzo (a) anthracenes and their use as selective estrogen receptor modulators” (Eli Lilly and Company, priority 2002, dated 2006) come the findings set out here.

T2 sequence (Q92731 whole entry): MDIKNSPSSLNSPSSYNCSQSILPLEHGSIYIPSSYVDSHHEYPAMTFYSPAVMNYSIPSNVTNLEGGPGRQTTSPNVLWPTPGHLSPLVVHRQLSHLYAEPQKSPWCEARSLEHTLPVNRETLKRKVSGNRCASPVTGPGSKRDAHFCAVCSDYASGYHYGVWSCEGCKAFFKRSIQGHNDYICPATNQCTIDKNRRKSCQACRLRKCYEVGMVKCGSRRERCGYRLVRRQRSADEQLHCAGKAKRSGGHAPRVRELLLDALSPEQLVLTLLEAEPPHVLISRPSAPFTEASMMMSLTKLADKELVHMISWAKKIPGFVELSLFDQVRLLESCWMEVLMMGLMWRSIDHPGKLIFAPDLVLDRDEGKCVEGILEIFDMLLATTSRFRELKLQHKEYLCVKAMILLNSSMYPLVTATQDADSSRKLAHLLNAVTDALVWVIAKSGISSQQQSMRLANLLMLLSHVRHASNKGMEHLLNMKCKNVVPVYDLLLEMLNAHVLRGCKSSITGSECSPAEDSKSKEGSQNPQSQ

Take `Oc1ccc2c3c(sc2c1)Cc1cccc(O)c1C3c1ccc(OCCN2CCCCC2)cc1` (stereo not drawn) [Example 3, 11-[4-(2-Piperidin-1-yl-ethoxy)-phenyl]-6,11-dihydro-benzo[b]naphtho[2,3-d]thiophene-3,10-diol trifluoroacetate]: the Ki is 3 nM on ERAlpha receptor and 14 nM at ERbeta receptor. Also, the concentration for half-maximal inhibition (IC50) was found to be 42 nM in assay [1] and 682 nM in assay [3]. The EC50 in assay [2] stood at 3 nM. In addition, the Emax in assay [2] is 135%.

On to `Oc1ccc2c(c1)C(c1ccc(OCCN3CCCCC3)cc1)c1c(sc3cc(O)ccc13)C2` (stereo not drawn) [Example 4, 11-[4-(2-Piperidin-1-yl-ethoxy)-phenyl]-6,11-dihydro-benzo[b]naphtho[2,3-d]thiophene-3,9-diol], for which the Ki on ERAlpha receptor and at ERbeta receptor was 1 nM in each case. The 50% inhibitory concentration (IC50) in assay [1] is 1 nM; in assay [3], 53 nM. Also, in assay [2], the 50% effective concentration (EC50) came out at 1 nM. The Emax in assay [2] was found to be 56%.

Consider `Oc1ccc2c(c1)C(c1ccc(OCCN3CCCCC3)cc1)c1c(ccc3cc(O)ccc13)C2` (stereo not drawn) [Example 8, 12-[4-(2-Piperidin-1-yl-ethoxy)-phenyl]-7,12-dihydro-benzo[a]anthracene-3,10-diol], for which the inhibition constant (Ki) was found to be 1 nM at ERAlpha receptor and 3 nM on ERbeta receptor. Moreover, the IC50 is 7 nM in assay [1] and 130 nM in assay [3]. For the same molecule, in assay [2], the response was half-maximal at 3 nM (EC50). Besides, the Emax in assay [2] was 75%.

As for `Oc1ccc2c3c(ccc2c1)Cc1cccc(O)c1C3c1ccc(OCCN2CCCCC2)cc1` (stereo not drawn) [Example 12, 12-[4-(2-Piperidin-1-yl-ethoxy)-phenyl]-7,12-dihydro-benzo[a]anthracene-3,11-diol], the Ki on ERAlpha receptor turned out to be 8 nM; on ERbeta receptor, 40 nM. In addition, the figures for the concentration for half-maximal inhibition (IC50) in assay [1] and in assay [3] were 68 nM and 582 nM, respectively. In assay [2], this molecule yielded a half-maximal effective concentration (EC50) of 28 nM. In assay [2], the Emax was found to be 77%.

For `Oc1ccc2c3c(ccc2c1)Cc1c(O)cccc1C3c1ccc(OCCN2CCCCC2)cc1` (stereo not drawn) [Example 13, 12-[4-(2-Piperidin-1-yl-ethoxy)-phenyl]-7,12-dihydro-benzo[a]anthracene-3,8-diol], the Ki stood at 1 nM on ERAlpha receptor and 5 nM on ERbeta receptor. Further, the IC50 was found to be 3 nM in assay [1] and 50 nM in assay [3]. The same molecule showed an EC50 in assay [2] of 1 nM. In assay [2], the Emax was determined as 121%.

Broadly, the Ki is a measure of affinity in units of concentration, obtained from inhibition or displacement. For orientation: IC50 means the point on the concentration scale where inhibition reaches its midpoint. The low end stands for greater potency, the high end for weaker potency. The term EC50 denotes the concentration at which the effect is half-maximal. Low readings indicate an effect from little substance, high ones a need for much substance.
